Reference: patent publication US8552064B2, “Suramin and derivatives thereof as topical microbicide and contraceptive” (Eastern Virginia Medical School, priority 2005, dated 2013)
Converted amounts (≈) assume the structure as drawn.

How the values were obtained:
[1] = test system: sperm; assay: Sander Cramer sperm immobilization test; assay type: cell-based
Description: The Sander Cramer test was used to determine the effect on sperm immobilization as described in Sander F V and Cramer S D., Hum. Fertil. 6: 134-153 (1941). This test may be used to evaluate the sperm-immobilizing effectiveness of contraceptive compositions. Serial dilutions of each test composition were added to semen adjusted to a designated number, e.g., 60 million of motile sperm per milliliter at room temperature (i.e., 25° C.). The end point is the greatest dilution at which all of the sperm are immobilized within 20 seconds. Results are expressed as minimum effective concentration in milligrams per milliliter.

[2] = test system: sperm; assay: Sperm viability, membrane integrity (HOST); assay type: cell-based
Description: Viability of sperm was assessed by a sperm membrane integrity evaluation as described in Jeyendran R. S. et al., J. Reprod. Fertil., 70: 219-28 (1984). Aliquots of sperm samples were incubated with suramin or N-9 test compounds. The reaction was terminated by the addition of 1.5 mL Ham's F10. Sperm were centrifuged and the pellet was resuspended in 200 μL of medium. Sperm viability was assessed by placing 100 μL of the sperm suspension in 900 μL of hypo-osmotic swelling test (HOST) medium for 30 min. Coiled sperm tails are a reflection of intact sperm membrane permeability and indicate viable sperm. A minimum of 200 cells were microscopically assessed from each sample.

[3] = test system: HIV-1 transmission from H9-SK1 cells to ME-180 cervical epithelial cells; assay: ME-180-based topical microbicide assay (CD4-independent epithelial cell transmission)
Description: ME-180 cervical epithelial cells were plated in the interior wells of a 96-well flat bottom microtiter plate at a density of 5×10^3 cells per well and incubated overnight. Chronically infected H9 cells (H9-SK1) were treated with 200 μg/ml mitomycin C (Sigma) in complete medium for one hour, washed extensively and resuspended at 4×10^5 per ml. […] Antiviral compounds and chronically infected cells (2×10^4 cells) were added to each well containing ME-180 cells and incubated for 6 hours. Following co-cultivation, the monolayer was washed extensively and fresh medium was added. Medium was removed and fresh medium was added at 24 and 48 hours post-infection to remove dead lymphocytes. On day 6 post-infection, supernatant samples were removed and analyzed for virus content by p24 ELISA (Phillips D M et al., 1995, J Virol Methods, March, 52 (1-2): 1-13).

[4] = test system: CaSki cells; assay: Cytotoxicity in the anti-herpes study; assay type: cell-based, human; conditions: highest concentration tested (1000 μg/mL)
[5] = test system: murine cytomegalovirus (MCMV) binding to NIH3T3 fibroblasts; assay: Cytomegalovirus binding assay; assay type: cell-based
Description: In a cytomegalovirus binding assay, tritiated murine cytomegalovirus (MCMV) was incubated with NIH3T3 fibroblasts in a 24-well plate fixed (0.4% paraformaldehyde) for 2 hours at 37° C. (rocking) in the presence of media alone or media containing 1-1000 μg/mL suramin. Cells were then washed extensively and lysed with 1% SDS and triton X-100. Lysates were quantified for radioactivity (cpm) in a scintillation counter.

[6] = test system: Chlamydia trachomatis (serotype E/UW-5/CX); assay: Chlamydia multiplication inhibition; assay type: cell-based
Description: Chlamydia multiplication inhibition was performed according to Cooper M. D. et al., J. Gen. Microbiol., 136: 1109-1115 (1990). Prior to experimentation, cryo-preserved Chlamydia trachomatis (serotype E/UW-5/CX) were quickly thawed (37° C.) and suspended by mild sonication. Serial 1:10 dilutions of the bacterial suspension were made, ranging from 10^−1 to 10^−7.
HeLa monolayers (on coverslips) were inoculated with 100 μl of the different dilutions of chlamydia (elementary bodies), in the presence or absence of test agent. The suramin compound was tested at 0.1, 1.0, 10, 100 and 1000 μg/ml. After 1 hour, the monolayers were washed to remove free chlamydia and test agent, and they were incubated for 48 hours.
Medium was removed, and the HeLa monolayers were fixed in methanol, washed, and treated with Kallsted Chlamydia Culture Confirmation fluorescein-conjugated Monoclonal Antibody. Reaction of labeled antibody with the cells was carried out for 30 minutes at room temperature (i.e., 25° C.) (no light) in a humidified chamber. The cells were washed with water; a drop of mounting medium is placed on a glass slide, and the coverslip was applied. Inclusions due to chlamydial infection were visualized with a fluorescent microscope as green fluorescence. Data was reported as the number of inclusion forming units per ml of undiluted chlamydial titer, and were adjusted to control values of 2.6×10^7 IFU/ml for control cultures (no test agent) in each experiment. […] After logarithmic transformation of all data, dose-response curves were created with curve-fitting (TableCurve 2D, version 3.02; Jandel Scientific) software.

[7] = test system: Neisseria gonorrhoeae; assay: Gonococcal growth inhibition (multiplication assay); assay type: cell-based
Description: Gonococcal growth inhibition assays were performed by the method of Anderson R. A., et al., J. Androl., 21: 862-875; 2000. Briefly, Neisseria gonorrhea from local uncomplicated cases of gonorrhea were isolated (verified by Gram stain, oxidase reactivity and sugar fermentation). The titer of log-phase cultures were adjusted by dilution in GC broth to 0.5 McFarland standard (approximately 10^8 colony forming units per ml). This was diluted 1:10 with broth that contained no additions (control), and each of serial 1:10 dilutions of test agent, ranging from 1 mg/ml to 1.0 μg/ml. The cultures were incubated at 37° C. for four hours. Four serial 1:10 dilutions were made in GC broth, and a portion of each dilution was inoculated onto GC agar plates. The plates were incubated overnight, and resultant gonococcal colonies were counted under bright-field microscopy. Data for each concentration of suramin were expressed as the number of colony-forming units (CFU) per ml of the original log-phase bacterial suspension.

[8] = test system: Lactobacillus gasseri; assay: Lactobacilli growth; assay type: cell-based

SMILES: Cc1ccc(C(=O)Nc2ccc(S(=O)(=O)O)c3cc(S(=O)(=O)O)cc(S(=O)(=O)O)c23)cc1NC(=O)c1cccc(NC(=O)Nc2cccc(C(=O)Nc3cc(C(=O)Nc4ccc(S(=O)(=O)O)c5cc(S(=O)(=O)O)cc(S(=O)(=O)O)c45)ccc3C)c2)c1 [Suramin, 8,8′-(carbonylbis(imino-3,1-phenylenecarbonylimino(4-methyl-3,1-phenylene)carbonylimino))bis-1,3,5-naphthalene trisulfonic acid]
- sperm-immobilizing activity ([1]; 20 mg/mL): no significant sperm-immobilizing activity
- sperm motility in Sander Cramer test ([1]; 10 and 5 mg/mL): all spermatozoa from samples were motile
- Potency, Motility (Sander Cramer, Motility, CASA) ([1]; highest concentration = 25 mg/mL): None
- sperm viability vs solvent-treated controls ([2]; 10-0.001 mg/mL): No significant differences
- Potency, Viability (HOST) ([2]; time- and dose-dependent exp.): None
- Potency, HIV-1 ME-180 [3]: High
- IC50 ([3]; Human immunodeficiency virus 1, ME-180, CD4-independent epithelial cell transmission): 24.5 µg/mL (≈ 18.9 µM)
- effect of mucin on activity in ME-180 assay ([3]; addition of mucin): did not significantly reduce suramin's activity
- cytotoxicity [4]: not being significantly cytotoxic
- Potency, CMV Binding [5]: Moderate
- IC50 ([5]; NIH3T3, read-out: IC50 CMV binding assay): 50 µg/mL (≈ 38.5 µM)
- Potency, Chlamydia (CT) Multiplication [6]: High
- inhibition of CT multiplication ([6]; 2 mg/mL): inhibition was essentially complete
- titer ([6]; 2 mg/mL, control titer 1×10^−5): 0.08×10^−5
- inhibition at 100 µg/mL ([6]; Chlamydia trachomatis, read-out: inhibition of CT multiplication): 75%
- inhibition at 2000 µg/mL ([6]; Chlamydia trachomatis, 2 mg/mL, read-out: inhibition of CT multiplication): 100%
- IC50 ([6]; Chlamydia trachomatis, read-out: IC50 Chlamydia (CT) Multiplication): 28 µg/mL (≈ 21.6 µM)
- Potency, Gonococcus (GC) Multiplication [7]: Moderate
- inhibition of GC growth (multiplication assay) ([7]; 1 mg/mL): completely inhibited GC growth
- dose-response of GC growth ([7]; 1-1000 μg/mL): no clear dose-response
- inhibition at 1000 µg/mL ([7]; Neisseria gonorrhoeae, 1 mg/mL, read-out: inhibition of GC multiplication): 100%
- effect on growth of Lactobacillus gasseri ([8]; 5 mg/mL): no inhibitory effect
- growth of Lactobacillus gasseri, % of control ([8]; 5 mg/mL (highest concentration tested)): 107 % of control
- Potency, Lactobacilli (Doubling time) ([8]; max. concentration tested = 5 mg/mL): None
